Assay results taken from US12194004B2, “Nano-delivery carrier for targeted tumor administration and application thereof” (Guizhou Provincial People's Hospital, priority 2023, dated 2025).

Test system: SKOV3 cells
Experiment: Cell viability detection with CCK-8 detection reagent
Format: cell-based
Details: SKOV3 cells treated at different (increasing) concentrations for 24 h
Procedure: In order to verify whether RVT can cause death of the tumor cells, SKOV3 cells are treated with RVT at different concentrations for 24 h, and viability of the SKOV3 cells treated with RVT is detected by using a cell counting kit-8 (CCK-8) detection reagent.
In addition, the SKOV3 cells are treated with PEG-SPIO at different concentrations for 24 h, and the viability of the SKOV3 cells treated with PEG-SPIO is detected by using the CCK-8 detection reagent.
Furthermore, the SKOV3 cells are treated with RVT-encapsulated PEG-SPIO-RVT nanoparticles for 24 h, and the viability of the SKOV3 cells treated with RVT-encapsulated PEG-SPIO-RVT nanoparticles is detected by using the CCK-8 detection reagent. The results are the same as that of treating with RVT alone.

## Oc1ccc(/C=C/c2cc(O)cc(O)c2)cc1 [RVT, 3,4′,5-trihydroxy-trans-stilbene]
  viability of the SKOV3 cells: gradually shows a downward trend
